PubChem BioAssay (NCI)
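Briefly, cells in 96-well plates were exposed to five compound concentrations for 48 h, and endpoints were estimated by linear interpolation. TGI: total growth inhibition.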

Columns and labels:
Assay in all cases: NCI-60 cell line screen, 48 h
OVCAR-8 ovarian = system: OVCAR-8 ovarian
SK-MEL-28 melanoma = system: SK-MEL-28 melanoma
SK-OV-3 ovarian = system: SK-OV-3 ovarian
MOLT-4 leukemia = system: MOLT-4 leukemia
SF-539 CNS = system: SF-539 CNS
RPMI-8226 leukemia = system: RPMI-8226 leukemia
CAKI-1 renal = system: CAKI-1 renal
EKVX NSCLC = system: EKVX NSCLC
U251 CNS = system: U251 CNS
IGROV1 ovarian = system: IGROV1 ovarian
NCI-H460 lung = system: NCI-H460 lung
K-562 leukemia = system: K-562 leukemia
SW-620 colon = system: SW-620 colon
HCT-15 colon = system: HCT-15 colon
RXF 393 renal = system: RXF 393 renal
T-47D breast = system: T-47D breast
DU-145 prostate = system: DU-145 prostate
A498 renal = system: A498 renal
HOP-62 NSCLC = system: HOP-62 NSCLC
MDA-MB-435 = system: MDA-MB-435
MDA-MB-231 breast = system: MDA-MB-231 breast
HL-60(TB) leukemia = system: HL-60(TB) leukemia
KM12 colon = system: KM12 colon
SK-MEL-5 melanoma = system: SK-MEL-5 melanoma
OVCAR-4 ovarian = system: OVCAR-4 ovarian
SF-268 CNS = system: SF-268 CNS
UACC-62 melanoma = system: UACC-62 melanoma
NCI-H23 lung = system: NCI-H23 lung
HT29 colon = system: HT29 colon
BT-549 breast = system: BT-549 breast
A549 NSCLC = system: A549 NSCLC
786-0 renal = system: 786-0 renal
OVCAR-3 ovarian = system: OVCAR-3 ovarian
HCT-116 colon = system: HCT-116 colon
UO-31 renal = system: UO-31 renal
NCI/ADR-RES ovarian = system: NCI/ADR-RES ovarian
MDA-N = system: MDA-N
TK-10 renal = system: TK-10 renal
CCRF-CEM leukemia = system: CCRF-CEM leukemia
PC-3 prostate = system: PC-3 prostate
UACC-257 melanoma = system: UACC-257 melanoma
HS 578T breast = system: HS 578T breast
OVCAR-5 ovarian = system: OVCAR-5 ovarian
COLO 205 colon = system: COLO 205 colon
SR leukemia = system: SR leukemia
MALME-3M melanoma = system: MALME-3M melanoma
SK-MEL-2 melanoma = system: SK-MEL-2 melanoma
M14 melanoma = system: M14 melanoma
HCC-2998 colon = system: HCC-2998 colon
SF-295 CNS = system: SF-295 CNS
ACHN renal = system: ACHN renal
SN12C renal = system: SN12C renal
MCF7 breast = system: MCF7 breast
HOP-92 NSCLC = system: HOP-92 NSCLC
SNB-19 CNS = system: SNB-19 CNS
NCI-H522 lung = system: NCI-H522 lung
LOX IMVI melanoma = system: LOX IMVI melanoma
NCI-H226 lung = system: NCI-H226 lung

`COC(=O)/C(=C(\C)NC(C)=O)c1c(C(=O)OC)[nH]c2ccccc12` showed a TGI (OVCAR-8 ovarian) greater than 100 µM, a TGI (SK-MEL-28 melanoma) greater than 100 µM and a TGI (SK-OV-3 ovarian) greater than 100 µM. It also gave a TGI (MOLT-4 leukemia) greater than 100 µM, a TGI (SF-539 CNS) greater than 100 µM and a TGI (RPMI-8226 leukemia) greater than 100 µM. It also gave a TGI (CAKI-1 renal) greater than 100 µM, a TGI (EKVX NSCLC) greater than 100 µM and a TGI (U251 CNS) greater than 100 µM. It also gave a TGI (IGROV1 ovarian) greater than 100 µM, a TGI (NCI-H460 lung) greater than 100 µM and a TGI (K-562 leukemia) greater than 100 µM. For the same compound, the TGI (SW-620 colon) was greater than 100 µM, the TGI (HCT-15 colon) was greater than 100 µM and the TGI (RXF 393 renal) was greater than 100 µM. For the same compound, the TGI (T-47D breast) was greater than 100 µM, the TGI (DU-145 prostate) was greater than 100 µM and the TGI (A498 renal) was greater than 100 µM. For the same compound, the TGI (HOP-62 NSCLC) was greater than 100 µM, the TGI (MDA-MB-435) was greater than 100 µM and the TGI (MDA-MB-231 breast) was greater than 100 µM. For the same compound, the TGI (HL-60(TB) leukemia) was greater than 100 µM, the TGI (KM12 colon) was greater than 100 µM and the TGI (SK-MEL-5 melanoma) was greater than 100 µM. It also gave a TGI (OVCAR-4 ovarian) greater than 100 µM, a TGI (SF-268 CNS) greater than 100 µM and a TGI (UACC-62 melanoma) greater than 100 µM. The TGI (NCI-H23 lung) was greater than 100 µM, the TGI (HT29 colon) was greater than 100 µM and the TGI (BT-549 breast) was greater than 100 µM. The TGI (A549 NSCLC) was greater than 100 µM, the TGI (786-0 renal) was greater than 100 µM and the TGI (OVCAR-3 ovarian) was greater than 100 µM. For the same compound, the TGI (HCT-116 colon) was greater than 100 µM, the TGI (UO-31 renal) was greater than 100 µM and the TGI (NCI/ADR-RES ovarian) was greater than 100 µM. The TGI (MDA-N) was greater than 100 µM, the TGI (TK-10 renal) was greater than 100 µM and the TGI (CCRF-CEM leukemia) was greater than 100 µM. The TGI (PC-3 prostate) was greater than 100 µM, the TGI (UACC-257 melanoma) was greater than 100 µM and the TGI (HS 578T breast) was greater than 100 µM. It also gave a TGI (OVCAR-5 ovarian) greater than 100 µM, a TGI (COLO 205 colon) greater than 100 µM and a TGI (SR leukemia) greater than 100 µM. The TGI (MALME-3M melanoma) was greater than 100 µM, the TGI (SK-MEL-2 melanoma) was greater than 100 µM and the TGI (M14 melanoma) was greater than 100 µM. It also gave a TGI (HCC-2998 colon) greater than 100 µM, a TGI (SF-295 CNS) greater than 100 µM and a TGI (ACHN renal) greater than 100 µM. It also gave a TGI (SN12C renal) greater than 100 µM, a TGI (MCF7 breast) greater than 100 µM and a TGI (HOP-92 NSCLC) greater than 100 µM. The TGI (SNB-19 CNS) was greater than 100 µM, the TGI (NCI-H522 lung) was greater than 100 µM and the TGI (LOX IMVI melanoma) was greater than 100 µM. It also gave a TGI (NCI-H226 lung) greater than 100 µM.
`O=C(NNc1cn[nH]c(=O)n1)c1cccc2nc3ccccc3nc12` showed a TGI (OVCAR-8 ovarian) greater than 100 µM, a TGI (SK-MEL-28 melanoma) greater than 100 µM and a TGI (SK-OV-3 ovarian) greater than 100 µM. For the same compound, the TGI (MOLT-4 leukemia) was 27.9 µM, the TGI (SF-539 CNS) was greater than 100 µM and the TGI (RPMI-8226 leukemia) was greater than 100 µM. For the same compound, the TGI (CAKI-1 renal) was greater than 100 µM, the TGI (EKVX NSCLC) was greater than 100 µM and the TGI (U251 CNS) was greater than 100 µM. For the same compound, the TGI (IGROV1 ovarian) was greater than 100 µM, the TGI (NCI-H460 lung) was greater than 100 µM and the TGI (K-562 leukemia) was greater than 100 µM. It also gave a TGI (SW-620 colon) greater than 100 µM, a TGI (HCT-15 colon) greater than 100 µM and a TGI (RXF 393 renal) of 56.8 µM. The TGI (T-47D breast) was greater than 100 µM, the TGI (DU-145 prostate) was greater than 100 µM and the TGI (A498 renal) was greater than 100 µM. The TGI (MDA-MB-435) was greater than 100 µM, the TGI (MDA-MB-231 breast) was 84.3 µM and the TGI (HL-60(TB) leukemia) was greater than 100 µM. For the same compound, the TGI (KM12 colon) was greater than 100 µM, the TGI (SK-MEL-5 melanoma) was greater than 100 µM and the TGI (OVCAR-4 ovarian) was greater than 100 µM. For the same compound, the TGI (SF-268 CNS) was greater than 100 µM, the TGI (UACC-62 melanoma) was greater than 100 µM and the TGI (NCI-H23 lung) was greater than 100 µM. For the same compound, the TGI (HT29 colon) was greater than 100 µM, the TGI (BT-549 breast) was greater than 100 µM and the TGI (A549 NSCLC) was greater than 100 µM. The TGI (786-0 renal) was greater than 100 µM, the TGI (OVCAR-3 ovarian) was greater than 100 µM and the TGI (HCT-116 colon) was greater than 100 µM. The TGI (NCI/ADR-RES ovarian) was greater than 100 µM, the TGI (MDA-N) was greater than 100 µM and the TGI (TK-10 renal) was 67 µM. It also gave a TGI (CCRF-CEM leukemia) greater than 100 µM, a TGI (PC-3 prostate) greater than 100 µM and a TGI (UACC-257 melanoma) greater than 100 µM. For the same compound, the TGI (HS 578T breast) was greater than 100 µM, the TGI (OVCAR-5 ovarian) was greater than 100 µM and the TGI (COLO 205 colon) was greater than 100 µM. For the same compound, the TGI (SR leukemia) was 26.5 µM, the TGI (MALME-3M melanoma) was greater than 100 µM and the TGI (SK-MEL-2 melanoma) was greater than 100 µM. For the same compound, the TGI (M14 melanoma) was greater than 100 µM, the TGI (HCC-2998 colon) was greater than 100 µM and the TGI (SF-295 CNS) was greater than 100 µM. It also gave a TGI (ACHN renal) of 60.1 µM, a TGI (SN12C renal) greater than 100 µM and a TGI (MCF7 breast) greater than 100 µM. It also gave a TGI (HOP-92 NSCLC) greater than 100 µM, a TGI (SNB-19 CNS) greater than 100 µM and a TGI (LOX IMVI melanoma) greater than 100 µM. For the same compound, the TGI (NCI-H226 lung) was greater than 100 µM.
